Experimental findings from patent publication US10722501B2 (BAYER AKTIENGESELLSCHAFT, priority 2016, dated 2020) are described below.

The term IC50 denotes the point on the concentration scale where inhibition reaches its midpoint.

The assay deals with T1, recombinant full-length human prolyl endopeptidase (PREP) (Homo sapiens, UniProt P48147).
T1 construct: To recombinant full-length human prolyl endopeptidase (PREP, R&D-Systems, 4308-SE); purchased R&D-Systems 4308-SE
T1 sequence (P48147 1-710): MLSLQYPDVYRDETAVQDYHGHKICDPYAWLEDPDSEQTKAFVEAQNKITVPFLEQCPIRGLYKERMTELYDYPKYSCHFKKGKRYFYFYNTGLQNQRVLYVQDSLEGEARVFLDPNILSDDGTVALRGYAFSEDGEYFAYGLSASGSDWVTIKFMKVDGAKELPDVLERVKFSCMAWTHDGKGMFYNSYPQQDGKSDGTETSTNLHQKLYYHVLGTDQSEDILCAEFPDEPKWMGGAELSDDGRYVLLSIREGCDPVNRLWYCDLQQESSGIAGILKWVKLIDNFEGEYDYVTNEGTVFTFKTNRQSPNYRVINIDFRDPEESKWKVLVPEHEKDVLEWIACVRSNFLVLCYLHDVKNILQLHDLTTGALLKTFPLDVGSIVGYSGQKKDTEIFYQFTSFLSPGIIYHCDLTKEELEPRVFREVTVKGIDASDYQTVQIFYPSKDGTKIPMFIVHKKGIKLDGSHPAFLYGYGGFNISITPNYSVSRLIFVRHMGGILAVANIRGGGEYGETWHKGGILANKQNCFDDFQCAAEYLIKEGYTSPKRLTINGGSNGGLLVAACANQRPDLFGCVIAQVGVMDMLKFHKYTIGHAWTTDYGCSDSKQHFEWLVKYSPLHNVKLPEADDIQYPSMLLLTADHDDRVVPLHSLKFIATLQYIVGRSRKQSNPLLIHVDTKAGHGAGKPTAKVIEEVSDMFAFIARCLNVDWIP
Description: Biochemical human prolyl endopeptidase (PREP) assay with fluorescently labelled substrate. The following applies: substrate Z-Gly-Pro-AMC 50 μM, 32° C., 60 min; some as mean values from multiple independent determinations. The gist of the method: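 Initial rates of fluorescence increase from 50 μM Z-Gly-Pro-AMC cleavage (ex 360/em 465 nm, 60 min, 32° C) give percent PREP activity versus no-compound control, and IC50 is interpolated. Enzyme used at 0.4 nM (final, example) in Tris pH 7.5 with EDTA, GSH, BSA and Brij-35; compounds span 1 nM to 30 μM.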
Turning to `N#C[C@@H]1CCCN1C(=O)[C@@H]1CCCc2nn(Cc3ncc(Cl)cc3Cl)c(=O)n21` [Example 513, (2S)-1-({(5S)-2-[(3,5-Dichloropyridin-2-yl)methyl]-3-oxo-2,3,5,6,7,8-hexahydro[1,2,4]triazolo[4,3-a]pyridin-5-yl}carbonyl)pyrrolidine-2-carbonitrile], the half-maximal inhibitory concentration (IC50) is 0.13 nM.

Regarding `N#C[C@@H]1CCCN1C(=O)[C@@H]1CCCc2nn(Cc3ncc(Cl)cc3F)c(=O)n21` [Example 514, (2S)-1-({(5S)-2-[(5-Chloro-3-fluoropyridin-2-yl)methyl]-3-oxo-2,3,5,6,7,8-hexahydro[1,2,4]triazolo[4,3-a]pyridin-5-yl}carbonyl)pyrrolidine-2-carbonitrile], the half-maximal inhibitory concentration (IC50) was 0.061 nM. Under `O=C([C@@H]1CCCc2nn(Cc3cncc(C(F)(F)F)c3)c(=O)n21)N1CC[C@H](F)C1` [Example 515, (5S)-5-{[(3S)-3-Fluoropyrrolidin-1-yl]carbonyl}-2-{[5-(trifluoromethyl)pyridin-3-yl]methyl}-5,6,7,8-tetrahydro[1,2,4]triazolo[4,3-a]pyridin-3(2H)-one] stands 0.59 nM; under `Cc1ccc(C(=O)Cn2nc3n(c2=O)[C@H](C(=O)N2CC[C@H](F)C2)CCC3)cc1` [Example 516, (5S)-5-{[(3S)-3-Fluoropyrrolidin-1-yl]carbonyl}-2-[2-(4-methylphenyl)-2-oxoethyl]-5,6,7,8-tetrahydro[1,2,4]triazolo[4,3-a]pyridin-3(2H)-one], 4.2 nM. Turning to `Cc1ccc(C(F)(F)Cn2nc3n(c2=O)[C@H](C(=O)N2CC[C@H](F)C2)CCC3)cc1` [Example 517, (5S)-2-[2,2-Difluoro-2-(4-methylphenyl)ethyl]-5-{[(3S)-3-fluoropyrrolidin-1-yl]carbonyl}-5,6,7,8-tetrahydro[1,2,4]triazolo[4,3-a]pyridin-3(2H)-one], the IC50 is 0.95 nM. Under `O=C([C@@H]1CCCc2nn(CCc3ncc(C(F)(F)F)cc3Cl)c(=O)n21)N1CC(F)C1` [Example 518, (5S)-2-{[3-Chloro-5-(trifluoromethyl)pyridin-2-yl]ethyl}-5-[(3-fluoroazetidin-1-yl)carbonyl]-5,6,7,8-tetrahydro[1,2,4]triazolo[4,3-a]pyridin-3(2H)-one] stands 15 nM; under `O=C([C@@H]1CCCc2nn(CCc3ccc(F)cc3)c(=O)n21)N1CCC(F)(F)C1` [Example 519, (5S)-5-[(3,3-Difluoropyrrolidin-1-yl)carbonyl]-2-[2-(4-fluorophenyl)ethyl]-5,6,7,8-tetrahydro[1,2,4]triazolo[4,3-a]pyridin-3(2H)-one], 1.4 nM; under `O=C([C@@H]1CCCc2nn(CCc3ccc(F)cc3)c(=O)n21)N1CC(F)C1` [Example 520, (5S)-5-[(3-Fluoroazetidin-1-yl)carbonyl]-2-[2-(4-fluorophenyl)ethyl]-5,6,7,8-tetrahydro[1,2,4]triazolo[4,3-a]pyridin-3(2H)-one], 1.7 nM. The value for `Cc1ccc(CCn2nc3n(c2=O)[C@H](C(=O)N2CCCC2)CCC3)cc1` [Example 521, (5S)-2-[2-(4-Methylphenyl)ethyl]-5-(pyrrolidin-1-ylcarbonyl)-5,6,7,8-tetrahydro[1,2,4]triazolo[4,3-a]pyridin-3(2H)-one] was 0.44 nM; that for `COc1ccc(CCn2nc3n(c2=O)[C@H](C(=O)N2C[C@@H](F)[C@@H](F)C2)CCC3)cc1` [Example 522, (5S)-5-{[(3R,4S)-3,4-Difluoropyrrolidin-1-yl]carbonyl}-2-[2-(4-methoxyphenyl)ethyl]-5,6,7,8-tetrahydro[1,2,4]triazolo[4,3-a]pyridin-3(2H)-one] was 1.5 nM.

Regarding `COc1ccc(CCn2nc3n(c2=O)[C@H](C(=O)N2CC(F)(F)C2)CCC3)cc1` [Example 523, (5S)-5-[(3,3-Difluoroazetidin-1-yl)carbonyl]-2-[2-(4-methoxyphenyl)ethyl]-5,6,7,8-tetrahydro[1,2,4]triazolo[4,3-a]pyridin-3(2H)-one], the half-inhibitory concentration (IC50) was determined as 28.5 nM.
